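Grown in 96-well plates, cells were treated for 48 hours with each compound at five concentrations. Insufficient inhibition: endpoint recorded as highest concentration tested. GI50 = concentration required for 50% inhibition of growth.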 Active and inactive are the calls of the source. Cut-off read from the data, not from the text of the source: active = GI50 up to about 1.1 µM and inactive = higher.
Tests used:
Assay in all cases: NCI-60 cell line screen, 48 h
[1] = tested on: UACC-257
[2] = tested on: Malme-3M
[3] = tested on: U-251
[4] = tested on: DLD-1
[5] = tested on: SF-268
[6] = tested on: UO-31
[7] = tested on: 786-0
[8] = tested on: NCI-H522
[9] = tested on: EKVX
[10] = tested on: HCT-15
[11] = tested on: HOP-62
[12] = tested on: NCI-H226
[13] = tested on: HT-29
[14] = tested on: OVCAR-8
[15] = tested on: UACC-62
[16] = tested on: SN12C
[17] = tested on: M19-MEL
[18] = tested on: CAKI-1
[19] = tested on: SK-MEL-2
[20] = tested on: M14
[21] = tested on: LOX IMVI
[22] = tested on: SR
[23] = tested on: KM-20L2
[24] = tested on: HOP-18
[25] = tested on: COLO 205
[26] = tested on: K562
[27] = tested on: NCI-H460
[28] = tested on: CCRF-CEM
[29] = tested on: DMS-114
[30] = tested on: HCT-116
[31] = tested on: SF-295
[32] = tested on: OVCAR-5
[33] = tested on: SK-OV-3
[34] = tested on: KM12
[35] = tested on: SNB-75
[36] = tested on: MOLT-4
[37] = tested on: SW-620
[38] = tested on: A549
[39] = tested on: IGROV-1
[40] = tested on: DMS-273
[41] = tested on: RXF 631
[42] = tested on: XF498
[43] = tested on: HL-60
[44] = tested on: OVCAR-4
[45] = tested on: RPMI-8226
[46] = tested on: TK-10
[47] = tested on: HOP-92
[48] = tested on: SNB-19
[49] = tested on: SF-539
[50] = tested on: LXFL 529
[51] = tested on: RXF 393
[52] = tested on: SK-MEL-5
[53] = tested on: A498
[54] = tested on: NCI-H23
[55] = tested on: OVCAR-3

In the case of `O=C1C(c2ccccc2)=C(c2ccccc2)C(c2ccc(-c3ccc(C4=C(c5ccccc5)C(=O)C(c5ccccc5)=C4c4ccccc4)cc3)cc2)=C1c1ccccc1`, the GI50 [1] is reported as > 100 µM (inactive), the GI50 [2] is reported as > 100 µM (inactive) and the GI50 [3] is reported as > 100 µM (inactive). The GI50 [4] was > 100 µM (inactive), the GI50 [5] was > 100 µM (inactive) and the GI50 [6] was > 100 µM (inactive). For the same molecule, the GI50 [7] was > 100 µM (inactive), the GI50 [8] was > 100 µM (inactive) and the GI50 [9] was > 100 µM (inactive). For the same molecule, the GI50 [10] was greater than 100 µM, the GI50 [11] was > 100 µM (inactive) and the GI50 [12] was > 100 µM (inactive). For the same molecule, the GI50 [13] was > 100 µM (inactive), the GI50 [14] was > 100 µM (inactive) and the GI50 [15] was > 100 µM (inactive). The GI50 [16] was > 100 µM (inactive), the GI50 [17] was > 100 µM (inactive) and the GI50 [18] was > 100 µM (inactive). For the same molecule, the GI50 [19] was > 100 µM (inactive), the GI50 [20] was > 100 µM (inactive) and the GI50 [21] was > 100 µM (inactive). For the same molecule, the GI50 [22] was > 100 µM (inactive), the GI50 [23] was > 100 µM (inactive) and the GI50 [24] was > 100 µM (inactive). For the same molecule, the GI50 [25] was > 100 µM (inactive), the GI50 [26] was > 100 µM (inactive) and the GI50 [27] was > 100 µM (inactive). For the same molecule, the GI50 [28] was > 100 µM (inactive), the GI50 [29] was > 100 µM (inactive) and the GI50 [30] was > 100 µM (inactive). The GI50 [31] was > 100 µM (inactive), the GI50 [32] was > 100 µM (inactive) and the GI50 [33] was > 100 µM (inactive). The GI50 [34] was > 100 µM (inactive), the GI50 [35] was 48.1 µM (inactive) and the GI50 [36] was 77.8 µM (inactive). For the same molecule, the GI50 [37] was > 100 µM (inactive), the GI50 [38] was > 100 µM (inactive) and the GI50 [39] was > 100 µM (inactive). For the same molecule, the GI50 [40] was > 100 µM (inactive), the GI50 [41] was > 100 µM (inactive) and the GI50 [42] was > 100 µM (inactive). For the same molecule, the GI50 [43] was > 100 µM (inactive), the GI50 [44] was > 100 µM (inactive) and the GI50 [45] was 46.9 µM (inactive). The GI50 [46] was > 100 µM (inactive), the GI50 [47] was > 100 µM (inactive) and the GI50 [48] was > 100 µM (inactive). The GI50 [49] was > 100 µM (inactive), the GI50 [50] was > 100 µM (inactive) and the GI50 [51] was > 100 µM (inactive). For the same molecule, the GI50 [52] was > 100 µM (inactive), the GI50 [53] was > 100 µM (inactive) and the GI50 [54] was > 100 µM (inactive). For the same molecule, the GI50 [55] was > 100 µM (inactive).
